Reference: patent US20060257875A1, “Affinity screening using "one-bead-one-compound" libraries” (Carlsberg A/S, priority 2003, published 2006)

System: basal myocyte protein
Test: Solid phase screening of Library 6 with unlabeled myocyte proteins; silver staining, on-bead tryptic digest
Type: binding, neonatal Wistar rats
Details: Normal Myocytes
Procedure: Myocytes were prepared from 1 to 5 day old neonatal Wistar rats (University of Copenhagen) according to literature procedure described in Busk et al., 2002, Cardiovasc. Res., 56: 64-75 and plated into eight P10 culture plates at 6 million cells/plate.
Isolated proteins that bound to specific ligands were identified using peptide mass fingerprinting. Mass spectra were recorded on a Bruker Reflex m MALDI time-of-flight mass spectrometer (Bruker-Daltonics, Bremen, Germany) operated in the positive reflectron mode using delayed extraction. Measurements were performed using the following parameters: Power 83-84 V; lens 7.300. The sum of 200-300 shots was used for each spectrum.
The spectra were calibrated using bradykinin peptide. In some cases, internal mass calibration was performed using a porcine trypsin autolysis product Peptide masses were searched against peptide mass maps in the National Center for Biotechnology Information (NCBI) database using the following search engines found on the world wide web (www.) for each of: • MS-FIT (prospector.ucsf.edu/ucsfhtml/msfit.htm), • Profound (129.85.19.192/profound_biniWebProFound.exe), and • MASCOT (matrixscience.com).
A search was performed using the NCBI bacterial (E. coli) database and the mammalian databases for the isolated proteins from the E. coli and myocyte samples, respectively, and the Swiss Prot mammalian databases and the Swiss Prot viral databases were searched to identify the porcine macrophage proteins and proteins, respectively. A molecular mass range was estimated from 0-250 K Da, allowing a mass accuracy that varied from 0.1 Da (some cases 0.3 Da) for each peptide mass. A large pI range from 0-14 or 0-12 was considered for each search. If no proteins matched, the mass window was extended. Partial enzyme cleavages allowing for two missed cleavage sites and modification of cysteine by alkylation were considered in the search approaches. A protein was considered identified if the matched peptides covered at least 30% of the complete sequence. A match of less than 30% was considered in some cases, if prominent peaks were obtained. Usually, four or more peptides were used for identification. In some instances, hypothetical proteins or gene products, such as biochemical material, either RNA or protein, calculated from the expected expression of a gene and to which a function may be assigned based on sequence homology, were identified.
Protein was extracted from myocytes prepared as described above for Example 9, using a new procedure (to preserve the activity of metalloproteases) modified from existing protocols, primarily: Amott, et al., 1998, Anal. Biochem. 258: 1-18. The media was removed from plates and cells were washed with ice cold phosphate buffer (5 ml, 10 mM, pH 7.5, supplemented with 0.15 M NaCl,) to remove traces of media components. The adhered cells were treated for 10 minutes with ice cold phosphate buffer (2 mL, 10 mM, pH 7.5, augmented with 0.15 M NaCl, […] E-64, 10 μg/mL Leupeptin, and 10 μg/mL Pepstatin A). The cells were scraped off the plates and then lysed (on ice) in a sonicator (2×) using 10 seconds off/110 seconds on cycles.
The resulting suspension was augmented with CHAPS (1% w/v), KCl (50 mM), NaCl (0.5 M), ZnCl2 (0.1 mM), DTT (5 mM), and urea (2 M). After 10-15 minutes on ice, the solution was centrifuged for 10 minutes at 15,000 rpm at 4° C. The supernatant was removed and protein content quantified using the NanoOrange Protein test (Molecular Probes, Eugene, Oreg.): Total protein recovered: 195 μg for PE-induced cells and 200 μg for basal cells.
The protein solutions were dialyzed extensively against 20 mM MES (2-[N-Morpholino]ethanesulfonic acid) buffer pH 6.0, supplemented with 0.15 M NaCl and 1 mM ZnCl2 to remove excess detergent and urea. […]

| Structure (SMILES) | Identified Protein(s) |
| --- | --- |
| CCC(CCO)NC(CCCCN)C(=O)N1CCN(C(=O)OC(C)(C)C)CC1 (stereo not shown) | Angiotensin converting enzyme (P22967). |
| CC(C)C(NC(CCCCN)C(=O)C[C@@H](C)C(=O)O)C(C)C (stereo partly shown) | Mysoin heavy chain nonmuscular type (AQ62812). |
| CCOC(=O)C1CCCCC1NC(CCCCN)C(=O)NC(CCCCNC(=O)OC(C)(C)C)C(=O)O (stereo not shown) | Angiotensin converting enzyme (P22967); U2 nuclear ribonuceoprotein zuxiliary factor (gi 2842676). |
| CCCCCCNC(=O)C(CCCCN)NC(CC)CCO (stereo not shown) | Myosine heavy chain, nonmuscular type (AQ62812); Hypothetical protein E330017A01 (XP-148690.1). |
| CC(C)C(NC(CCCCN)C(=O)N1CCN(C(=O)OC(C)(C)C)CC1)C(C)C (stereo not shown) | Angiotensin converting enzyme (P22967). |
| CCOC(=O)C1CCCCC1NC(CCCCN)C(=O)N[C@@H](C)C(=O)O (stereo partly shown) | Golgi coiled coil protein GCC185 (Q8CHG3). |
| CCCCCCNC(=O)C(CCCCN)NC1CCCCC1C(=O)OCC (stereo not shown) | Inward rectifier potassium channel 13 (Q9QZ65, IRKD_CAVPO); Sulfonylurea receptor 2 (Q63563); small conductance potassium channel (P58391). |
| CCCCCCNC(=O)C(CCCCN)NC(C(C)C)C(C)C (stereo not shown) [drawing 170] | Heat Shock protein 70 kDa protein 12A (Q8KOU4); Ser- ine/threonine protein kinase (O88866); Ras GTPase acti- vating protein 2 (GAP1m) (58069). |
| CCOC(=O)C(CCc1ccccc1)NC(CCCCN)C(=O)N[C@@H](C)C(=O)O (stereo partly shown) | Testase 1 or disintegrin 5 containing metalloproteinase domain 24 (gi 31981793); ADP-ribosylation factor like protein 8 (Q96KC2). |
| CCOC(=O)C(CCc1ccccc1)NC(CCCCN)C(=O)N1CCC[C@H]1C(=O)O (stereo partly shown) [drawing 164] | Angiotensin converting enzyme (P22967); U2 nuclear ribonucleoprotein auxxiliary factor (gi 2842676). |
